Counter-ions that a name gives are not always drawn. Like-named read-outs stand apart in the source and are kept apart here. Square brackets hold non-standard residues; d marks the D form. Peptide text beside a SMILES is read from it. * marks the point of attachment. pNA = O=[N+]([O-])c1ccc(N*)cc1; 4Abz = Nc1ccc(C(=O)O)cc1; Tfa = O=C(C(F)(F)F)*; NHPh = c1ccc(N*)cc1
Tests used:
[1] = molecular target: T1, leucocytal elastase (Homo sapiens, UniProt P08246); assay: I50 on leucocytal elastase, hydrolysis of succinyl-tri-alanine-paranitroanilide at 10^-3 M; type: biochemical; details: 25° C., TRIS 0.2 M buffer, pH 8; substrate 10^-3 M; in the presence of 50 % dimethylformamide (footnote); read-out: T 50^ (b) leucocytal
T1 construct: This latter was purified according to the Travis method; from tissue
T1 sequence (P08246 30-267): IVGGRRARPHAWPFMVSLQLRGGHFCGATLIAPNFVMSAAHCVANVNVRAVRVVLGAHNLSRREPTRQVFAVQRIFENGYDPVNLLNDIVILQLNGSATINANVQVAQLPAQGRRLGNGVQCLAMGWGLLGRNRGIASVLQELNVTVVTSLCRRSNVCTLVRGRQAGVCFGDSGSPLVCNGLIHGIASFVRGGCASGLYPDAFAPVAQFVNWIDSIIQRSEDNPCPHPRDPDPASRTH
Text: (§1) This latter was purified according to the Travis method (Baugh, R. J. and Travis, J. (1976), Biochemistry, 15, 4, 836). The method of study used is the conventional method of Dixon (Dixon, M., (1953), Biochemical Journal, 55, 1970) for measuring the inhibition constants KI of the compounds of the invention with regard to the hydrolysis reactions of the succinyl-tri-L-alanine-paranitroanilide catalysed by the two above elastases (Bieth J., Spiess B. and Wermuth C. G. (1974) Biochemical Medicine, 11, 350). In certain cases (leucocytal elastase) the inhibitory power of the compounds studied was measured by means of the I50 concentration of these compounds inducing 50% inhibition of the hydrolysis of the succinyl-tri-alanine-paranitroanilide at a 10^-3 M concentration catalysed by the enzyme. […] All the measurements were made at 25° C. in a 0.2 Molar buffer solution of tri-hydroxymethyl-aminomethane at pH 8.

[2] = molecular target: T2, porcine pancreatic elastase (Sus scrofa, UniProt P00772); assay: Inhibition constant KI (Dixon method) on pancreatic elastase, hydrolysis of succinyl-tri-L-alanine-paranitroanilide; type: biochemical; details: 25° C., TRIS 0.2 M buffer, pH 8; absence of any organic solvent; read-out: K T^ (a) pancreatic
T2 sequence (P00772 27-266): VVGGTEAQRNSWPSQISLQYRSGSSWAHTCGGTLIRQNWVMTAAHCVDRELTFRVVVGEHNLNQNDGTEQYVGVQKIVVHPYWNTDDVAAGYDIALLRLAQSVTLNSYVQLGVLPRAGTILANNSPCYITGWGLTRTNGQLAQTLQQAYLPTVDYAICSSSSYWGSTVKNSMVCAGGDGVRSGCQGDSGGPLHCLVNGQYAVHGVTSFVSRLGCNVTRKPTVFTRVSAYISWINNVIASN
Text: as §1
(§2) Table E below lists the results obtained for the compounds of formula (I) as well as the reference compounds (A), acetyl-L-prolyl-L-alanyl-L-prolyl-L-alaninal, for the pancreatic elastase (Thompson, R. C., Biochemistry (1973), 17, 1, 47) and (B), oleic acid, for the leucocytal elastase (Ashe, B. M. and Zimmerman, M. (1977), Biochem. Biophys. Res. Comm., 75, 194).

[3] = molecular target: T1, leucocytal elastase; assay: Inhibition constant KI (Dixon method) on leucocytal elastase, hydrolysis of succinyl-tri-L-alanine-paranitroanilide; type: biochemical; details: 25° C., TRIS 0.2 M buffer, pH 8; absence of any organic solvent; read-out: K T^ (a) leucocytal
Text: as §1, §2

[4] = molecular target: T1, leucocytal elastase; details: reference compound, Ashe and Zimmerman (1977); read-out: K T^ (a) leucocytal; cited from earlier work
[5] = tested on: mice; assay: Intravenous toxicity on mice; type: in vivo; details: intravenously, 20, 40 and 80 mg/kg, solution in physiological serum containing 10% DMF
Protocol: Furthermore, the toxicity of the compounds of the invention were studied intravenously on mice. More exactly, these compounds were tested in the form of a solution in physiological serum containing 10% DMF.
It is to be noted that it was not possible to use doses higher than those indicated above, because of the solubility limit of compound 3.

[6] = molecular target: T2, porcine pancreatic elastase; details: reference compound, Thompson, Biochemistry (1973); read-out: K T^ (a) pancreatic; cited from earlier work

SMILES	IC50 [1] [µM]	Ki [2] [nM]	Ki [3] [nM]	Ki [4] [µM]	mortality [5]	Ki [6] [nM]
CC(=O)c1ccc(NC(=O)[C@H](C)NC(=O)[C@H](CCCCN)NC(=O)C(F)(F)F)cc1 [compound 16]	9	32	2500			
C[C@H](NC(=O)[C@H](C)NC(=O)C(F)(F)F)C(=O)Nc1ccc(Cl)cc1 [compound 2]	100	110				
C[C@H](NC(=O)[C@H](CCCCN)NC(=O)C(F)(F)F)C(=O)Nc1ccccc1 [compound 11] (Tfa-Lys-Ala-NHPh)	150	40	44000			
C[C@H](NC(=O)[C@H](C)NC(=O)C(F)(F)F)C(=O)Nc1cccc(C(F)(F)F)c1 [compound 6]	120	800				
CCCCCCCC/C=C\CCCCCCCC(=O)O [B, oleic acid]				9		
C[C@H](NC(=O)[C@H](C)NC(=O)C(F)(F)F)C(=O)Nc1ccc([N+](=O)[O-])cc1 [Code number 3, N-trifluoroacetyl-L-alanyl-L-alanyl-p-nitroanilide] (Tfa-Ala-Ala-pNA)	78	120			no case of mortality was observed	
CC(=O)N1CCC[C@H]1C(=O)N[C@@H](C)C(=O)N1CCC[C@H]1C(=O)N[C@@H](C)C=O [A, acetyl-L-prolyl-L-alanyl-L-prolyl-L-alaninal] (Ac-PAPA-aldehyde)						800
C[C@H](NC(=O)[C@H](CCCCN)NC(=O)C(F)(F)F)C(=O)Nc1ccc(C(F)(F)F)cc1 [compound 12]	35	25	3000			
C[C@H](NC(=O)[C@H](C)NC(=O)C(F)(F)F)C(=O)Nc1ccc(C(F)(F)F)cc1 [compound 5]	56	90				
COc1ccc(NC(=O)[C@H](C)NC(=O)[C@H](C)NC(=O)C(F)(F)F)cc1 [compound 7]	30	290				
C[C@H](NC(=O)[C@H](C)NC(=O)C(F)(F)F)C(=O)Nc1ccc(C#N)cc1 [compound 9]	100	110				
CC(C)c1ccc(NC(=O)[C@H](C)NC(=O)[C@H](C)NC(=O)C(F)(F)F)cc1 [compound 8]	12	550				
CC(C)c1ccc(NC(=O)[C@H](C)NC(=O)[C@H](CCCCN)NC(=O)C(F)(F)F)cc1 [compound 14]	5.7	50	700			
C[C@H](NC(=O)C(F)(F)F)C(=O)N[C@@H](CCCCN)C(=O)Nc1ccc(C(F)(F)F)cc1 [compound 19]	150	400				
C[C@H](NC(=O)[C@H](C)NC(=O)C(F)(F)F)C(=O)Nc1cccc([N+](=O)[O-])c1 [compound 4]	150	380				
C[C@H](NC(=O)[C@H](C)NC(=O)C(F)(F)F)C(=O)Nc1ccc(C(=O)O)cc1 [compound 10] (Tfa-Ala-Ala-[4Abz]-OH)	470	200				
Cc1ccc(NC(=O)[C@H](C)NC(=O)[C@H](CCCCN)NC(=O)C(F)(F)F)cc1 [compound 13]	50	30	14000			
CC(NC(=O)C(F)(F)F)C(=O)NC(C(=O)Nc1ccccc1)C(F)(F)F (mixture of isomers) [compound 17]	400	270				
C[C@H](NC(=O)[C@H](C)NC(=O)C(F)(F)F)C(=O)Nc1ccccc1 [compound 1] (Tfa-Ala-Ala-NHPh)	250	250				

— patent US4153688A, “Trifluoromethylated oligopeptides” (Delalande S.A., priority 1977, dated 1979)
